One test addresses T1, Cytochrome P450 1A2 (Homo sapiens, UniProt P05177).
T1 sequence (P05177 whole entry): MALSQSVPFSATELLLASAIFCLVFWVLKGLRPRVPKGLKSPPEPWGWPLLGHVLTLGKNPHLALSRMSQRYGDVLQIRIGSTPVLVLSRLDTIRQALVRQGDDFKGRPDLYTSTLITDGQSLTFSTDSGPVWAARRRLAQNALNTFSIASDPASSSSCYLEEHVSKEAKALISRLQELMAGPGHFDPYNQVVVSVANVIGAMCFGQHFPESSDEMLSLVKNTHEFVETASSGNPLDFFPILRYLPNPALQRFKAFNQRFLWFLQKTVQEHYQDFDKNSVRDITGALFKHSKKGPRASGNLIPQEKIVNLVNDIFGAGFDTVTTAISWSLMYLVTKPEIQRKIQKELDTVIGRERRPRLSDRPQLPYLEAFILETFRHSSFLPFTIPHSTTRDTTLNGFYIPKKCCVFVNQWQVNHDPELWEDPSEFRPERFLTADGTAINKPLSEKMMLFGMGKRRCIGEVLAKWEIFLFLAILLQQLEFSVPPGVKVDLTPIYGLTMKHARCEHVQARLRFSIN

The nature of test [1]: blockers of HIV-1 envelope-mediated cell-cell fusion – cherry-pick, dose response (AID 652057). The class given is functional, cell-based.
The subject of another test is P388/ADR. Kind of test: cells. The class given is functional. The following applies: Mus musculus, P388/ADR.
In another test the test system is P388. As to the kind of experiment: cells. The class given is functional. The note with it: Mus musculus, P388.
In a further test the test system is SN12K1. As to the kind of experiment: cells. The class given is functional. The following applies: Homo sapiens, SN12K1.
Test [2] in a line: microbe, parasite or virus in culture. Format: functional. The note with it: Mycobacterium tuberculosis.
Test [3] in a line: viability of uninfected HEp-2 cells – cell-based, HTS, cytotoxicity control for RSV inhibitor project, dose response (AID 2410). The class given is functional. The following applies: human respiratory syncytial virus.
A short description of test [4]: HIV-1 AD8 envelope cell-cell fusion blockers – cherry-pick, dose response (AID 652062).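 Note: luciferase signal from cell-cell fusion driven by HIV-1 clade B AD8 Env; potency is for inhibitors of fusion seen as a drop in luminescence.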 Format: functional, cell-based.
The next test addresses T2, Streptokinase A (Streptococcus pyogenes serotype M1, UniProt P10520).
T2 sequence (P10520 whole entry): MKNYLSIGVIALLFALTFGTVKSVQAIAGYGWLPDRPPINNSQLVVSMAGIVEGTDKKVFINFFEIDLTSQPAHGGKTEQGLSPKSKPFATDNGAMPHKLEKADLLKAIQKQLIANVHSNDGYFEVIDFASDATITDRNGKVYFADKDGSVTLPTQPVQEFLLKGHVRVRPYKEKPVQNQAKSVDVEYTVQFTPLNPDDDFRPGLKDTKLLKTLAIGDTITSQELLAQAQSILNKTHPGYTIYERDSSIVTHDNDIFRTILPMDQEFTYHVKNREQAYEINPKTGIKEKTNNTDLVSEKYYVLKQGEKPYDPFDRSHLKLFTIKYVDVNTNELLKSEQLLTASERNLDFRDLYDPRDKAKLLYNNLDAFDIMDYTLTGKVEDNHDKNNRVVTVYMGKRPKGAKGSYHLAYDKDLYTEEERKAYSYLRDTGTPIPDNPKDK
As to the kind of experiment: viability-normalized secreted streptokinase activity reduction – plasminogen activation absorbance, OD405, dose response (AID 1914).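 Note: secreted streptokinase activity via plasminogen activation per viability signal from cell pellet.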 The class given is functional, Streptococcus pyogenes M1 GAS.

Test [5] deals with Streptococcus sp. 'group A'. As to the kind of experiment: Streptococcus pyogenes SK(-)GAS viability under kanamycin – luminescence, BacTiterGlo, confirmation, counter-screen for streptokinase expression inhibitor project, dose response (AID 1900). Format: functional, organism-based. (The purpose of a counterscreen is to sort out artefacts and off-target activity.)
The test system of another test is Streptococcus. As to the kind of experiment: GAS UMAA2166 growth inhibition – luminescence, BacTiterGlo, counter-screen for streptokinase expression inhibitor project, dose response (AID 1915).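 Note: potency for reduction of bacterial viability or growth.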 Format: functional, organism-based.

Consider 19 compounds from ChEMBL document CHEMBL1201862, “PubChem BioAssay data set” (2004).

One may read the AC50 as the concentration giving half of the maximal activity seen. Usually GI50 stands for the concentration giving 50% growth inhibition. The term EC50 denotes the concentration needed to bring the measured effect to its halfway point. A lower EC50 goes with greater potency.

Activity calls are given as the source filed them. Starred links: 1 amine or outer side, 2 acyl side, 3 side chain; linkers in the order of their positions; H or OH if unused. Positions of bridges follow the written chain, without caps; N, C: chain ends. Non-standard residues stand in square brackets, D forms with d. Residues, ends and D or L forms follow the SMILES beside them. Chains are numbered I, II in the order given. Actinocin(1to9) = Cc1c2oc3c(C)ccc(C(=O)[*:2])c3nc-2c(C(=O)[*:1])c(N)c1=O; aThr = C[C@H](O)[C@H](N)C(=O)O; NMeV = CN[C@H](C(=O)O)C(C)C; Sar = CNCC(=O)O Some results are limits rather than exact numbers.

Consider `Clc1ccc2c(c1)C1=C(C(c3ccncc3)O2)C(c2ccc(Br)cc2)n2ncnc2N1` (stereo not given), for which the AC50 at Cytochrome P450 1A2 was 25.1 µM (inconclusive); in [1] it was 11.2 µM (active).

On to `C=CC1(C)CC(=O)C2(O)C(C)(O1)C(OC(C)=O)C(O)C1C(C)(C)CCC(O)C12C` (stereo not given), for which the values for the GI50 with P388/ADR, with P388 and with SN12K1 were 43.9 µM (inactive), 56.4 µM (inactive) and 65.3 µM (inactive), respectively.

Turning to `COc1ccc(-n2cc(CNCCc3cscn3)c(-c3ccccc3Cl)n2)cc1`, the CC50 in test [2] is > 40 µM (active).

Consider `COc1ccc(N2CCN(c3ccnc4cc(Cl)ccc34)CC2)cc1`, for which, in [2], the CC50 is > 40 µM (active).

Regarding `Nc1[nH]nc(C2CC2)c1N=Nc1ccc(Cl)cc1`, the CC50 in test [2] was > 40 µM (active).

Turning to `Cc1ncc2c(n1)-c1cc(F)ccc1SC2`, in [3], the CC50 is 40.5 µM (active).

Turning to `CCOC(=O)c1c(CN2CCN(Cc3ccccc3)CC2)n(C)c2cc(Br)c(OC)cc12`, in test [2], the CC50 was > 40 µM (active).

Turning to `CSc1ccccc1OCc1cc(C(=O)N2CCC(Oc3cccnc3)CC2)no1`, the CC50 in test [2] is > 40 µM (active).

Turning to `COc1ccc(CCNC(=O)c2cc3sc(Cl)cc3n2C)cc1OC`, in [3], the CC50 is 27.5 µM (active).

For `CCCCNC(=O)c1cccc(S(=O)(=O)N2CC3(C)CC2CC(C)(C)C3)c1` (stereo not given), the CC50 in test [3] is 26.5 µM (active).

For the compound `O=C(O)CCC(NC(=O)c1ccc(Nc2nc3cc(C(F)(F)F)ccc3nc2-c2ccccc2)cc1)C(=O)O` (stereo not given), the values for the GI50 in the test on P388/ADR, in the test on P388 and in the test on SN12K1 were 38.5 µM (inactive), 26.5 µM (inactive) and 48.2 µM (inactive), respectively.

Take `CCOC(=O)c1c(C)c2c(n1C)CCc1c[nH]nc1-2`: the values for the GI50 with P388/ADR, in the test with P388 and in the test with SN12K1 were > 31.6 µM (inactive), > 100 µM (inactive) and > 100 µM (inactive), respectively.

For the compound `COc1cc2c(cc1OC)C(C(c1ccccc1)c1ccccc1)N(C)CC2` (stereo not given), the GI50 was 41.6 µM (inactive) in the test with P388/ADR, 24.5 µM (inactive) in the test on P388 and 32.6 µM (inactive) in the test with SN12K1.

Take `C[C@H]1CN([C@@H](C)CO)C(=O)c2ccccc2-c2ccccc2CO[C@@H]1CN(C)C(=O)Nc1cccc(C(F)(F)F)c1`: the AC50 in [4] was 19 µM (active); in test [1], < 0.26 µM (active).

With `O=C1C=C2SC3C[C@@]24CC1[N+]1=c2c4c(c(O)c4c2=C(C=N4)CC1)N3`, the GI50 in the test on P388/ADR is 6.35 µM (inactive); in the test with P388, 1.83 µM (inactive); in the test on SN12K1, 1.94 µM (inactive).

In the case of `CCOC(=O)c1c(N)sc(-c2ccccc2)c1C`, the CC50 in [3] is 28.5 µM (active).

Take `Cc1c2oc3c(C)ccc(C(=O)N[C@@H]4C(=O)N[C@H](C(C)C)C(=O)N5CCC[C@H]5C(=O)N(C)CC(=O)N(C)[C@@H](C(C)C)C(=O)O[C@H]4C)c3nc-2c(C(=O)N[C@@H]2C(=O)N[C@H](C(C)C)C(=O)N3CCC[C@H]3C(=O)N(C)CC(=O)N(C)[C@@H](C(C)C)C(=O)O[C@H]2C)c(N)c1=O` (I: [aThr][dV]P[Sar][NMeV] / II: [aThr][dV]P[Sar][NMeV]; ester I:1-I:C, II:1-II:C; linker I:N-II:N via Actinocin(1to9)): the figures for the concentration for 50% growth inhibition (GI50) in the test with P388/ADR, with P388 and in the test with SN12K1 were 0.00442 µM (active), 0.00025 µM (active) and 0.000337 µM (active), respectively.

Regarding `CC12CCC(CC1)C(C)(C)O2` [EUCALYPTOL], the GI50 in the test on P388/ADR was 8.17 µM (inactive); in the test with P388, 9.1 µM (inactive); in the test on SN12K1, 21.9 µM (inactive). Moreover, the EC50 (at Streptokinase A; in test [5]; in the test on Streptococcus) was > 150 µM (not active) throughout.

In the case of `NC1=NC(=O)/C(=C2\CCNC(=O)c3[nH]c(Br)cc32)N1` [HYMENIALDISINE], the results for the GI50 in the test with P388/ADR, in the test on P388 and in the test with SN12K1 were 7.28 µM (inactive), 3.97 µM (inactive) and 12.3 µM (inactive), respectively.
